Laboratory results: US5395842A, “Anti-estrogenic compounds and compositions” (Endorecherche Inc., priority 1991, dated 1995)

Experiments:
advanced breast cancer = conditions: H. Mouridsen et al., 1978; cited from earlier work
[1] = test system: ZR-75-1 human breast cancer cell line; experiment: growth of ZR-75-1 human breast cancer cells; format: cell-based; conditions: for IC50: Homo sapiens, 240 h, 10 days, read-out: half-maximal effectiveness / IC50 on growth of ZR-75-1 cells
Method: ZR-75-1 cells (83rd passage) were obtained from the American Type Culture Collection (Rockville, Md.) and routinely cultured in phenol-red free RPMI 1640 supplemented with 1 nM E2, 2 mM L-glutamine, 1 mM sodium pyruvate, 15 mM N-2-hydroxyethyl-piperazine-N'-2-ethanesulfonic acid, 100 IU penicillin/ml, 100 μg streptomycin/ml, and 10% (v/v) fetal bovine serum (Hyclone, Logan, UT) under a humidified atmosphere of 95% air, 5% CO2, at 37° C. All media and medium supplements were purchased from Sigma. Cells were subcultured weekly by treatment with a pancreatic solution containing 0.02% EDTA (w/v). The cell cultures used for the experiments herein described were between passages 89 and 94.
Cells in their logarithmic growth phase were harvested, briefly centrifuged, and resuspended in RPMI 1640. Cells were then plated in triplicate in LIMBRO 24-well plastic culture plates (2 cm^2 /well). Since plating density influences the effect of hormones on ZR-75-1 cell growth, cells were plated at a density of 1×10^4 cells/well. After 72 h, medium was replaced with fresh medium of identical composition containing, in addition, the concentrations of steroids and/or inhibitors (e.g. EM 312 or EM 343) indicated along the X-axis of FIG. 5. Control cultures received the ethanol vehicle only. Cells were then allowed to grow at 37° C. for 10 days with medium changes (of identical composition) every 2 days. In absence of inhibitors, in 0.1 nM estradiol (E2)-containing medium, ZR-75-1 cells have doubling time of about 48 h.
After E2 and/or antiestrogen treatment, cells were harvested by addition of 0.5 ml of a pancreatin solution (Sigma) for 5-10 min at 37° C. before addition of 0.5 ml of RPMI 1640 containing 5% dextran-coated charcoal-fetal bovine serum in order to block enzymatic action. Cell number (0.10-ml aliquot) was determined by measurement of DNA content as previously described (Simard et al., Endocrinology 126: 3223-3231, 1990).

[2] = reported by Saeed et al. and Sharma et al., 1990; cited from earlier work
[3] = test system: rat uterine cytosol estrogen receptor; experiment: competition binding on the rat uterine cytosol estrogen receptor with [3H] estradiol; conditions: 25° C., FIG. 1
Method: J. Endocrinol. 112: R7-R110) and EM-142 (an antiestrogen having a nonsteroidal nucleus and synthesized in example 1, herein) for the rat uterine cytosol receptor ([…] et al., 1978; J. Steroid Biochem. 9: 1079-1082). EM-142 from example 1 was tested by competition binding on the rat uterine cytosol estrogen receptor with [^3 H] estradiol according to […] et al. (1976) prodecure. […] (incubation was performed at 25° C. for 3 hours).

[4] = test system: uterine weight in adult female ovariectomized Balb/c mice; experiment: inhibition of the estradiol-induced stimulation of uterine weight in adult female ovariectomized Balb/c mice; format: in vivo
Method: (§1) EM-142, and/or estradiol contained in ethanol were injected subcutaneously in the appropriate groups in a solution of 0.9% (w/v) sodium chloride and 1% (w/v) gelatin at different concentrations in 0.2 ml for EM-142, twice daily, starting on the day of ovariectomy for a total of 9 injections. Estradiol was injected at the dose of 0.01 μg in 0.2 ml, twice daily, starting on the morning after ovariectomy for a total of 8 injections.
After sacrifice, the uteri were rapidly removed, freed from fat and connective tissue and weighted. Results shown in FIG. 2 are the means±SEM of groups of 9-10 mice.
as §1, with “"EM 139", and/or” for “EM-142, and/or”, “estradiol dissolved” for “estradiol contained”, “concentrations of "EM 139" (as noted along the X axis of FIG. 3). A dosage of” for “concentrations in”, “ml of the foregoing preparation, was administered” for “ml for EM-142,”
After sacrifice, the uteri were rapidly removed, freed from fat and connective tissue and weighed. Results shown in FIG. 3 are the means±SEM of groups of 9-10 mice.

[5] = test system: 17β-hydroxysteroid dehydrogenase; conditions: Thomas et al., 1983; cited from earlier work
[6] = test system: 17β-hydroxysteroid dehydrogenase (17β-HSD); experiment: inhibition of 17β-HSD catalyzed conversion of estradiol to estrone (NADH formation at 340 nm); format: biochemical, human; conditions: increasing concentrations; 1 μg 17β-HSD, 5 mM NAD, 20 μM 17β-estradiol, pH 7.5, 25° C., 15 min; FIG. 4
Source text: To test the effect of "EM 139" on the inhibition of sex steroid formation, its effect on the 17β-hydroxysteroid dehydrogenase catalyzed conversion of estradiol to estrone was observed. The reaction was followed by monitoring formation of NADH (at 340 nm). The rate of conversion of cofactor NAD to NADH varies directly with the rate of estradiol conversion to estrone. The ability of "EM 139" to inhibit estrone production is indicative of its ability to inhibit the estrogen-forming reverse reaction because both reactions are catalyzed by 17β-hydroxysteroid dehydrogenase (Thomas et al., J. Biol. Chem. 258: 11500-11504, 1983). 17β-hydroxysteroid dehydrogenase (17β-HSD) was purified to homogeneity from human placenta. A reaction vessel was prepared containing 1 μg 17β-HSD, 5 mM NAD, 20 μM 17β-estradiol, and the concentrations of the test compound "EM 139" which are indicated along the X-axis of FIG. 4 in 1.0 ml of a mixture of Tris-HCl (50 mM), EDTA (2 mM), NaN3 (5 mM). The pH was 7.5. The reaction was allowed to proceed at 25° C. for 15 min. Formation of NADH was measured at 340 nm.

Structure (SMILES): CC/C(=C(\c1ccccc1)c1ccc(OCCN(C)C)cc1)c1ccccc1 [Tamoxifen]
- women patients with remission of advanced breast cancer (advanced breast cancer): about 30%

Structure (SMILES): Oc1ccc(C2=Cc3ccc(O)cc3OC2c2ccc(OCCN3CCCCC3)cc2)cc1 (stereo not shown) [EM 312]
- IC50 ([1]; ZR-75-1 cells, FIG. 5): 843 pM
- fold by which IC50 is higher than that of EM 343 ([1]; ZR-75-1 cells, relative to EM 343, FIG. 5): 3 -fold
- comparative effect on growth of ZR-75-1 cells vs EM 343 (in words) ([1]; comparative testing in the applicant's laboratory): underperformed EM 343
- antiestrogenic activity (in words) [2]: antiestrogenic activity

Structure (SMILES): CCCCN(C)C(=O)CCCCCCCCCCC(=C(CC)c1ccc(O)cc1)c1ccc(O)cc1 [EM 142, N-butyl, N-methyl-12,13-Bis(4-hydroxyphenyl)-12-pentadecenoic amide]
- binding potency compared with the antiestrogen ICI 164384 (in words) [3]: more potent
- times less potent than 17β-estradiol [3]: 3 times
- inhibitory effect on E2-induced uterine growth (in words) ([4]; 0.3 μg, s.c., twice daily, estradiol 0.01 μg, FIG. 2): significant inhibitory effect
- reversal of estrogenic action on uterine weight (in words) ([4]; 20 μg, s.c., twice daily, estradiol 0.01 μg, FIG. 2): complete reversal of estrogenic action
- estrogenic effect on uterine weight (in words) ([4]; EM-142, agonism on uterine weight): no estrogenic effect on uterine weight

Structure (SMILES): C=C1C[C@H]2[C@@H]3CCc4cc(O)ccc4[C@H]3CC[C@]2(C)C1=O [16-methylene estrone]
- inhibition of 17β-hydroxysteroid dehydrogenase activity (in words) [5]: inhibitors of 17β-hydroxysteroid dehydrogenase activity

Structure (SMILES): CC1=C(c2ccc(O)cc2)C(c2ccc(OCCN3CCCCC3)cc2)Oc2cc(O)ccc21 (stereo not shown) [EM 343]
- IC50 ([1]; ZR-75-1 cells, FIG. 5): 255 pM
- cell growth inhibition (in words) ([1]; ZR-75-1 cells, low concentration, FIG. 5): extensive cell growth inhibition

Structure (SMILES): C=C1C[C@H]2[C@@H]3CCc4cc(O)ccc4[C@H]3CC[C@]2(C)[C@H]1O [16-methylene estradiol]
- inhibition of 17β-hydroxysteroid dehydrogenase activity (in words) [5]: inhibitors of 17β-hydroxysteroid dehydrogenase activity

Structure (SMILES): CCCCN(C)C(=O)CCCCCCCCCC[C@@H]1Cc2cc(O)ccc2[C@H]2CC[C@]3(C)[C@@H](O)[C@H](Cl)C[C@H]3[C@H]12 [EM 139, N-n-butyl-N-methyl-11-(16'α-chloro-3',17'β-dihydroxy-estra-1',3',5'(10') -trien-7' α-yl) undecanamide]
- inhibition of 17β-HSD reaction (in words) [6]: significantly inhibited the reaction
- reduction of estradiol-induced uterine weight gain (in words) ([4]; s.c., twice daily, 9 injections, FIG. 3): highly effective in reducing estradiol-induced uterine weight gain
